Reference: PMC4159296, “Antibodies to the Extracellular Pore Loop of TRPM8 Act as Antagonists of Channel Activation” (PLoS ONE, 2014)
Entries after “also recorded” stand apart in the source; their conditions may differ. Like-named read-outs stand apart in the source and are kept apart here.

How the values were obtained:
Format in all cases: cell-based
mouse TRPM8 = molecular target: T1, mouse TRPM8 (Mus musculus, UniProt Q8R4D5); assay: agonist-induced 45Ca2+ uptake assay, CHO cells expressing mouse TRPM8; details: mean ± SD
T1 construct: expressed in transfected cells; host or cells: T-REx-CHO (Chinese hamster ovary), tetracycline-induced
Description: (§1) Complementary DNAs of recombinant human, rat and mouse TRPM8 were stably transfected into Tetracycline-Regulated Expression cell line, T-REx-Chinese hamster ovary cell line from Invitrogen, Inc. (Carlsbad, CA). Twenty four hours before the assay, cells were seeded in Cytostar-T 96-well plates at a density of 3.0×10^4 per well, and TRPM8 channel expression was induced with 0.5 µg/ml tetracycline. On the day of the assay, culture media were removed, and cells were incubated with TRPM8 antibody (ACC-049), antagonist M8-B, or control IgG for 30 min before addition of ^45Ca^2+. Stock solutions of ACC-049, M8-B, and control IgG were diluted to the desired final concentrations in the assay buffer (F-12 Ham's containing 15 mM HEPES and 0.1 mg/ml BSA) keeping the final concentration of DMSO lower than 0.5% for M8-B. The activity of TRPM8 was monitored as function of cellular uptake of radioactive calcium. The final concentration of ^45Ca^2+in the ^45Ca^2+ uptake assay was 10 µCi/ml. […] For cold activation of TRPM8, cold assay buffer at 10°C was used. ACC-049 was assayed in cells stably expressing human, rat, or mouse TRPM8 channels. The other commercial antibodies listed in Table 1 were assayed at a single concentration in 30 µl in icilin induced activation of human TRPM8 channels. The TRPM8 antagonist M8-B was used as a positive control and control IgG was used as a negative control in all assays. TRPM8 activation was calculated as percent of control (POC) with agonist (cold, icilin or menthol) induced radioactive calcium uptake set as 100 percent and assay buffer only plus ^45Ca^2+ set as zero percent with exception of cold activation, where blockade with M8-B at 1 µM was set as zero percent. Evaluation of antagonism at heat activation of TRPV1 [26], and noxious cold temperature activation of TRPA1 [24] was conducted as reported previously.
(§2) GraphPad Prism 5.0 (GraphPad Software, Inc., San Diego, CA) software was used to plot the data and to calculate the 50% inhibitory concentrations (IC50) of compounds and antibodies using a sigmoidal dose-response equation.

rat TRPM8 = molecular target: T2, rat TRPM8 (Rattus norvegicus, UniProt Q8R455); assay: agonist-induced 45Ca2+ uptake assay, CHO cells expressing rat TRPM8; details: mean ± SD
T2 construct: expressed in transfected cells; host or cells: T-REx-CHO (Chinese hamster ovary), tetracycline-induced
Description: as §1, §2

[1] = molecular target: T3, endogenous TRPM8 expressed in rat dorsal root ganglion neurons (Rattus norvegicus, UniProt Q8R455); assay: icilin-induced 45Ca2+ uptake assay in freshly isolated rat DRG neurons; details: 1 µM icilin; same single concentration/volume of antibodies; Fig. 6B
T3 construct: endogenous in cells; host or cells: primary dorsal root ganglion neurons from male Sprague Dawley rats

human TRPM8 = molecular target: T4, human TRPM8 (Homo sapiens, UniProt Q7Z2W7); assay: agonist-induced 45Ca2+ uptake assay, CHO cells expressing human TRPM8; details: for IC50: CHO cells, mean ± SD; for block of icilin-induced 45Ca2+ uptake, human TRPM8 in CHO cells: single concentration/volume, 30 µl antibody solution, stock concentrations not provided, Fig. 6A
T4 construct: expressed in transfected cells; host or cells: T-REx-CHO (Chinese hamster ovary), tetracycline-induced
Description: as §1, §2

human TRPV1 = human TRPV1 (Homo sapiens, UniProt Q8NER1); assay: heat activation of human TRPV1, 45Ca2+ uptake; details: ACC-049 and control IgG 2.5 µM; peptide 10 µM; Fig. 2
Description: as §1, with “ACC-049 was assayed in cells stably expressing human, rat, or mouse TRPM8 channels. The other commercial antibodies listed in Table 1 were assayed at a single concentration in 30 µl in icilin induced activation of human TRPM8 channels. The TRPM8 antagonist M8-B was used as a positive control and control IgG was used as a negative control in all assays.” left out, “Evaluation of antagonism at heat activation of TRPV1 [26], and noxious cold temperature activation of TRPA1 [24] was conducted as reported previously.” left out

human TRPA1 = human TRPA1 (Homo sapiens, UniProt O75762); assay: noxious cold temperature activation of human TRPA1, 45Ca2+ uptake; details: ACC-049 and control IgG 2.5 µM; peptide 10 µM; Fig. 2
Description: as §1, with “ACC-049 was assayed in cells stably expressing human, rat, or mouse TRPM8 channels. The other commercial antibodies listed in Table 1 were assayed at a single concentration in 30 µl in icilin induced activation of human TRPM8 channels. The TRPM8 antagonist M8-B was used as a positive control and control IgG was used as a negative control in all assays.” left out, “Evaluation of antagonism at heat activation of TRPV1 [26], and noxious cold temperature activation of TRPA1 [24] was conducted as reported previously.” left out

T2 sequence (Q8R455 whole entry): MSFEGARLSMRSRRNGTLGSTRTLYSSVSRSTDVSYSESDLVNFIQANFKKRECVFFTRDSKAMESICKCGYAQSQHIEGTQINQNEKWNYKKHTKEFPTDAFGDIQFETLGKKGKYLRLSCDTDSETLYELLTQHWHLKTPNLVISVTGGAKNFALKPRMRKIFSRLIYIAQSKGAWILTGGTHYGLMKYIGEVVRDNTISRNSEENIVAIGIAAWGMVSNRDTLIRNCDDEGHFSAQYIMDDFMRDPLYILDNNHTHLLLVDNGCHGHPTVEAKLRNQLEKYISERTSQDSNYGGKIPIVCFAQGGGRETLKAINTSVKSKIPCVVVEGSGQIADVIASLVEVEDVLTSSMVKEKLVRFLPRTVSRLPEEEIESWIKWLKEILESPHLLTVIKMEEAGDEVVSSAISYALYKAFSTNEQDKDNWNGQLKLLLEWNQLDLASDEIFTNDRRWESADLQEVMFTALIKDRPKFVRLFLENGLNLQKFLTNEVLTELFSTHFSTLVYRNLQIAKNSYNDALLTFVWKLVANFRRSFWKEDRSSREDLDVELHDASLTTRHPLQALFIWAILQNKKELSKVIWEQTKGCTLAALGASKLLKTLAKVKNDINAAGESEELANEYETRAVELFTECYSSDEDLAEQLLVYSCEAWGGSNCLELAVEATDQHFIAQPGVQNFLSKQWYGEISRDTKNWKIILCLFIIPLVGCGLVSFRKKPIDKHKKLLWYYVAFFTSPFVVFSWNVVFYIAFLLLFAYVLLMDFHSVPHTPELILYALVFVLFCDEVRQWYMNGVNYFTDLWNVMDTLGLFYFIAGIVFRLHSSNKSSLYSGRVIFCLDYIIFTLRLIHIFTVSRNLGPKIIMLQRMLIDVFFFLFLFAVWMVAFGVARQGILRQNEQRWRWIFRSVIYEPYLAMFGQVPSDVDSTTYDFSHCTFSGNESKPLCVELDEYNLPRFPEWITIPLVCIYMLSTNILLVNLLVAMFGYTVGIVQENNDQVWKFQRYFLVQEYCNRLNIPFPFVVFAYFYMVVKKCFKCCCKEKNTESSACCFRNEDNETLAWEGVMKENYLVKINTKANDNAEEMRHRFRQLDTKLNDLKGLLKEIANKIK
T1 sequence (Q8R4D5 whole entry): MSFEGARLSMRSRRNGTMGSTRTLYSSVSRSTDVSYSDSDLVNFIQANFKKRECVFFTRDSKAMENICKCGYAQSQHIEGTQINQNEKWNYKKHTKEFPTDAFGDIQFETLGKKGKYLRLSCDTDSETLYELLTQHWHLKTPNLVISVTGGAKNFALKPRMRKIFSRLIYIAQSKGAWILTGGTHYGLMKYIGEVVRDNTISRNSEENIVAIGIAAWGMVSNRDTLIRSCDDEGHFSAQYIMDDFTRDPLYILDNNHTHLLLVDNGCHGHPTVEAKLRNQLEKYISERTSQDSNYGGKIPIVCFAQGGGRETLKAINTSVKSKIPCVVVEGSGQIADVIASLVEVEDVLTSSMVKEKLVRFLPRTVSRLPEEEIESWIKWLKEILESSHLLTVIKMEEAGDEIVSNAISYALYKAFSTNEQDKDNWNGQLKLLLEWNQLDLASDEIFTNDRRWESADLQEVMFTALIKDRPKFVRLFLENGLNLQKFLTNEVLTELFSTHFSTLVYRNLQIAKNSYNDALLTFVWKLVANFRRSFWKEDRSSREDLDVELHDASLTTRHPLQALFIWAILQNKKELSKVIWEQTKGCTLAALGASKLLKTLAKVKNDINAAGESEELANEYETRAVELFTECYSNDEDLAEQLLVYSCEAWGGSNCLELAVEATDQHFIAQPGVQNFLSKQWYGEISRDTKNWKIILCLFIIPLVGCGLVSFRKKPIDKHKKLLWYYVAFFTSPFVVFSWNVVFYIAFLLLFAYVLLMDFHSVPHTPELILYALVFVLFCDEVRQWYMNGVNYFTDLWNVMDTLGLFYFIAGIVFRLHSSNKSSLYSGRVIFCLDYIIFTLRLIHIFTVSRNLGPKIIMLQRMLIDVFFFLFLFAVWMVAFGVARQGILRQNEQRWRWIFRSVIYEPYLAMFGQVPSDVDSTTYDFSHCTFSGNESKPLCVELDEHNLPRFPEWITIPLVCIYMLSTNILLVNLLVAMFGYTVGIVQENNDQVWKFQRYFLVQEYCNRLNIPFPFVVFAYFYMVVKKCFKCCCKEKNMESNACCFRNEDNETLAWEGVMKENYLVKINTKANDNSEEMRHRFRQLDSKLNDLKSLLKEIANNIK
T4 sequence (Q7Z2W7 whole entry): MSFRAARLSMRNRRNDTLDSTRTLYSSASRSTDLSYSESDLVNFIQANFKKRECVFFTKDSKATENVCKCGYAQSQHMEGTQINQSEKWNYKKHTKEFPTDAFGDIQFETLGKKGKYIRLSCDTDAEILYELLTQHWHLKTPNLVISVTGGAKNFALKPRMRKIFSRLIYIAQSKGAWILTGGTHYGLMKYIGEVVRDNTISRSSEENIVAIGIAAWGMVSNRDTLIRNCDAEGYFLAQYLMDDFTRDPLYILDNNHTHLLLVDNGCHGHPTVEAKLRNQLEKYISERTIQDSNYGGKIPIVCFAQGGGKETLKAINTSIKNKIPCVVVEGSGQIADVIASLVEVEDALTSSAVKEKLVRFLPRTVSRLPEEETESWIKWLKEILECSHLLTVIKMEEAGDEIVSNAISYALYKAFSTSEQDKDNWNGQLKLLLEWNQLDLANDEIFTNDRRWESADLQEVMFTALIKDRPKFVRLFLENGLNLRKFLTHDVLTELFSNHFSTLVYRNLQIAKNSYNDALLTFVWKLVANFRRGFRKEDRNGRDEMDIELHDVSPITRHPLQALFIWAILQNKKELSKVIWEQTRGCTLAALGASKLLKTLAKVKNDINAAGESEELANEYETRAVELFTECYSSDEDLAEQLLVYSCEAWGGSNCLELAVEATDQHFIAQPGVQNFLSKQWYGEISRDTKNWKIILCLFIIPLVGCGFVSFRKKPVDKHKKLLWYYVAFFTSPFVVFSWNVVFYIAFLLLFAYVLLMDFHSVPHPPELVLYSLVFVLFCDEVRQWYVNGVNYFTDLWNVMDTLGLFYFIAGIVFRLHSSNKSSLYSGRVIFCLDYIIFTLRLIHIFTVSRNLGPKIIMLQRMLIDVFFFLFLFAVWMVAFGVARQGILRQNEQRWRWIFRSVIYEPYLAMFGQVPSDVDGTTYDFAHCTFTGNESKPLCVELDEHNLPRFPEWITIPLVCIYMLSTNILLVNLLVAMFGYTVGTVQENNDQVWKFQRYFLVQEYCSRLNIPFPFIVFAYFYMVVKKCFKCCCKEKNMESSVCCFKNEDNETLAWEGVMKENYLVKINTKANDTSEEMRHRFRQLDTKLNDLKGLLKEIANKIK
T3 sequence (Q8R455 whole entry): as the sequence (Q8R455 whole entry) above
human TRPA1, sequence (O75762 whole entry): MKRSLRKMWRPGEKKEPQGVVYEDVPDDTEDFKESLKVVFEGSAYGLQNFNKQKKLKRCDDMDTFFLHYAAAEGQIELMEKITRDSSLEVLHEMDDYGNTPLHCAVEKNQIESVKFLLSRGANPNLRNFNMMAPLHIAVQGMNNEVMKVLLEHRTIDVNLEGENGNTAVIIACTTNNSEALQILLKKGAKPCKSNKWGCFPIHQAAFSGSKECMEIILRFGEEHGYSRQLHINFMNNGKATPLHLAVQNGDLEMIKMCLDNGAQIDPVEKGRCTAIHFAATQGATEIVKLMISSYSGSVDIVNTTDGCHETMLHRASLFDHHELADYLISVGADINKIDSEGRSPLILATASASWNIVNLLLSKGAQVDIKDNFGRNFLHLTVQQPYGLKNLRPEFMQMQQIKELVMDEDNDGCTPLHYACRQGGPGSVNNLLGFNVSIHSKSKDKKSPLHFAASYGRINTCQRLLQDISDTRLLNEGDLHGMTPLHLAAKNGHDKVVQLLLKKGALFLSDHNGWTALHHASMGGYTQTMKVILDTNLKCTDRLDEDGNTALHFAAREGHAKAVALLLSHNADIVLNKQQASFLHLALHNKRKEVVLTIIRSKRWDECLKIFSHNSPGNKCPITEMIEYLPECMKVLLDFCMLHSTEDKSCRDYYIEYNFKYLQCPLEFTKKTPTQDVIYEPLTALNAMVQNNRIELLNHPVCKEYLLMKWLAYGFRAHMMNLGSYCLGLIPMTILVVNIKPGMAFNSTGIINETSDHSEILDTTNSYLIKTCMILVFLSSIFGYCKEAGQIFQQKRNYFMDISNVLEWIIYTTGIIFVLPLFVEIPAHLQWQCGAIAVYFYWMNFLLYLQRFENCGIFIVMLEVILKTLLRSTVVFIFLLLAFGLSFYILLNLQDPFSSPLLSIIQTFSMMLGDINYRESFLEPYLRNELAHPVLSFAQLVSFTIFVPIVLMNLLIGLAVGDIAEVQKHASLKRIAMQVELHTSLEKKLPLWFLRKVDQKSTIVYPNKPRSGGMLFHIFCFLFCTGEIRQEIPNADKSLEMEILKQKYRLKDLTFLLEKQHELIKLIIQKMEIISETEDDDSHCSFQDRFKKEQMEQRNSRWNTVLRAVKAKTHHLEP

| Compound | IC50 (mouse TRPM8; 1 µM icilin, triplicate wells, read-out: IC50, icilin induced mouse TRPM8 channel activation) [nM] | IC50 (mouse TRPM8; 100 µM menthol, triplicate wells, read-out: IC50, menthol induced mouse TRPM8 channel activation) [nM] | IC50 (mouse TRPM8; cold 10°C, one experiment in triplicate wells, read-out: IC50, cold induced mouse TRPM8 channel activation) [nM] | IC50 (rat TRPM8; 1 µM icilin, triplicate wells, read-out: IC50, icilin induced rat TRPM8 channel activation) [nM] | IC50 (rat TRPM8; 100 µM menthol, triplicate wells, read-out: IC50, menthol induced rat TRPM8 channel activation) [nM] | IC50 (rat TRPM8; cold 10°C, one experiment in triplicate wells, read-out: IC50, cold induced rat TRPM8 channel activation) [nM] | block of icilin-induced 45Ca2+ uptake, rat DRG neurons [1] | IC50 (human TRPM8; 1 µM icilin, triplicate wells, read-out: IC50, icilin induced human TRPM8 channel activation) [nM] | block of icilin-induced 45Ca2+ uptake, human TRPM8 in CHO cells (human TRPM8; 1 µM icilin) | IC50 (human TRPM8; 100 µM menthol, triplicate wells, read-out: IC50, menthol induced human TRPM8 channel activation) [nM] | IC50 (human TRPM8; cold 10°C, one experiment in triplicate wells, read-out: IC50, cold induced human TRPM8 channel activation) [nM] | effect on heat activation of human TRPV1, single concentration (human TRPV1) | effect on noxious cold temperature activation of human TRPA1, single concentration (human TRPA1) | blockade of cold activation of human TRPM8, single concentration (human TRPM8; ACC-049 and control IgG 2.5 µM, peptide 10 µM, cold, Fig. 2) | blockade of icilin activation of human TRPM8, single concentration (human TRPM8; ACC-049 and control IgG 2.5 µM, peptide 10 µM, icilin, Fig. 2) |
| --- | --- | --- | --- | --- | --- | --- | --- | --- | --- | --- | --- | --- | --- | --- | --- |
| COc1cc(CN(CCN)C(=O)c2cccs2)ccc1OCc1ccccc1 [M8-B] | 6 ± 1.1 | 2 ± 1.2 | 2 ± 1.2 | 11 ± 1.1 | 2 ± 1.3 | 2 ± 1.2 | full inhibition | 11 ± 1.2 | fully; also recorded: completely blocked | 1 ± 1.4 | 3 ± 1.1 | – | – | – | – |
| SDVD GTTYDFAHC (N-terminal SDVD) [peptide, cognate peptide of ACC-049, amino acid residues 917-929 of human TRPM8] | – | – | – | – | – | – | did not affect | – | no effects | – | – | no effects | no effects | no effects | no effects |
